According to patent US20170121683A1, “ARYL HYDROCARBON RECEPTOR DISRUPTION AND ENHANCEMENT” (priority 2015, published 2017):

Columns and labels:
[1] = system: H9 hESCs; assay: NK cell differentiation from hESCs, flow cytometry (Example 1); type: cell-based, human; settings: 1 μM SR-1 or 10 nM TCDD in NK cell differentiation conditions, n=2
Procedure: H9 hESCs were differentiated as spin EB exposed to Stage I mesodermal induction media for 11 days and transferred to NK-cell differentiation media with either DMSO, 1 μM SR-1, or 10 nM TCDD treatment for an additional 14 and 21 days. At the indicated time points, non-adherent cells were harvested and analyzed for NK-cell immunophenotype (CD56^+CD45^+) by flow cytometry. Representative flow cytometry plots are shown from two biologically independent experiments.
H9 hESCs were differentiated into NK cells as previously described (Ni et al. Embryonic Stem Cell Immunobiol. Methods Protoc. Methods Mol. Biol. 1029, 33-41 (2013)). In brief, H9 hESCs were aggregated as spin-EBs and differentiated in Stage I mesodermal induction media for 11 days, with one-half media change with fresh cytokines on Day 6. […]
Harvested cells were incubated with PE-Cy7 CD34 (BD Biosciences, San Jose, Calif.) in conjunction with APC CD31, APC CD41a, APC CD43, or APC CD45 for 30 minutes at 4° C. in FACS buffer (DPBS containing 2% fetal bovine serum and 0.1% sodium azide). […] Cells were analyzed using an LSRII flow cytometer (BD Biosciences) and data were analyzed using FlowJo software (TreeStart, Ashland, Oreg.).

[2] = system: hESC-derived NK cells; assay: CD107a degranulation assay with K562 target cells; type: cell-based, human; settings: Day 11+28, K562 targets at 2:1 effector:target ratio, 4 hours

Compound	CD56+CD45+ NK cells [1] [%]	CD107a expression (percentage of CD107a+ cells) [2] [%]
CC(C)n1cnc2c(NCCc3ccc(O)cc3)nc(-c3csc4ccccc34)nc21 [SR-1, StemReginin-1]	26.4	58.1±0.67
Clc1cc2c(cc1Cl)Oc1cc(Cl)c(Cl)cc1O2 [TCDD, 2,3,7,8-tetrachlorodibenzo-p-dioxin]	6.7	36.8±2.1
